# Laboratory results: patent US10894782B2, “Modulators of P97 AAA ATPase activity” (University of Pittsburgh—Of the Commonwealth System of …, priority 2016, dated 2021)
# Molecular target: P97 (Homo sapiens (Human), UniProt P55072)
# Assay: P97 Biomolgreen ATPase assay, 200 μM ATP
# Format: biochemical
# Conditions: P97 Biomolgreen, IC50 (μM)
# Chain of P97 (P55072 whole entry): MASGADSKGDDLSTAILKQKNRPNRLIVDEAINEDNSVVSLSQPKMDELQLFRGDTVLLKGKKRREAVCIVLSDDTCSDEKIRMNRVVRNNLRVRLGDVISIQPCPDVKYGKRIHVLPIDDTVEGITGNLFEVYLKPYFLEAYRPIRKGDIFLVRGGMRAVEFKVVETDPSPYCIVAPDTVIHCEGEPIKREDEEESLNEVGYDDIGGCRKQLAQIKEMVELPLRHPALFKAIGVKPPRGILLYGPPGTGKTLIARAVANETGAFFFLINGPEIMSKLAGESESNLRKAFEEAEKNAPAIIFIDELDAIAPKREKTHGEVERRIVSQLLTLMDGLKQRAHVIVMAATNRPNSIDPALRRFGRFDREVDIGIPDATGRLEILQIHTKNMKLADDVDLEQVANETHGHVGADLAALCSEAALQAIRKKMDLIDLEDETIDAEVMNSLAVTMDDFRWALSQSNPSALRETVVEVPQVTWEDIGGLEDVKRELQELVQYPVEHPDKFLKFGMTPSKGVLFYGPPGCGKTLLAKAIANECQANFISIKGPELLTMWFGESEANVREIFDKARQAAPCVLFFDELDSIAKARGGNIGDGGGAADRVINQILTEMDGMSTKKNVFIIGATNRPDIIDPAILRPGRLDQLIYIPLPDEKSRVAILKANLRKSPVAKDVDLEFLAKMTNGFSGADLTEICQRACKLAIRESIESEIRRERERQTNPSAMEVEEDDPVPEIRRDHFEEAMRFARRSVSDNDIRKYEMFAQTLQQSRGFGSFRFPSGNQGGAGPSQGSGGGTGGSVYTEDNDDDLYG
row,SMILES,IC50 [µM]
1,[2H]C1([2H])C([2H])([2H])C([2H])([2H])C([2H])(Sc2nnc(COc3ccc(C#CCO)c(F)c3)n2-c2cccnc2)C1([2H])[2H] [Compound 105],0.03
2,[2H]C1([2H])C([2H])([2H])C([2H])([2H])C([2H])(Sc2nnc(COc3ccc(C#CCNC4CCN(C(C)C)CC4)c(C)c3)n2-c2cccnc2)C1([2H])[2H] [Compound 38],0.095
3,[2H]C1([2H])C([2H])([2H])C([2H])([2H])C([2H])(Sc2nnc(COc3ccc(C#CCOC(=O)NC)c(F)c3)n2-c2cccnc2)C1([2H])[2H] [Compound 106],0.02

# Same assay, conditions: read-out: P97 Biomolgreen, IC50
row,SMILES,IC50 [µM]
1,Cc1cc(OCc2nnc(SC3C=CCCC3)n2-c2cccnc2)ccc1C#CC(OC(=O)NCCN1CCN(C(C)C)CC1)C(F)(F)F (stereo not shown) [Compound 62],0.11
2,Cc1cc(OCc2nnc(SC3C=CCCC3)n2-c2cccnc2)ccc1C#CC1(O)COC1 (stereo not shown) [Compound 34],0.098
3,Cc1cc(OCc2nnc(SC3CCCC3)n2-c2cccnc2)ccc1C#CCN1CCS(=O)(=O)CC1 [Compound 44],0.18
4,CN1CCN(CCNC(=O)OCC#Cc2ccc(OCc3nnc(SC4C=CCCC4)n3-c3cccnc3)cc2C(F)(F)F)CC1 (stereo not shown) [Compound 82],0.043
5,Cc1cc(OCc2nnc(SC3C=CCCC3)n2-c2cccnc2)ccc1C#CCNS(=O)(=O)N1CCN(C)CC1 (stereo not shown) [Compound 65],0.047
6,Cc1cc(OCc2nnc(SC3C=CCCC3)n2-c2cccnc2)ccc1C#CCO (stereo not shown) [Compound 79],0.037
7,Cc1cc(OCc2nnc(SC3C=CCCC3)n2-c2cccnc2)ccc1C#CC1(NC(=O)OC(C)(C)C)CCCCC1 (stereo not shown) [Compound 53],1.1
